According to article PMC8790063, “Discovery of Benzopyrrolizidines as Promising Antigiardiasic Agents” (Frontiers in Cellular and Infection Microbiology, 2022):
Where “and” joins values, the source holds several entries; their conditions need not be identical. Equal values may be shown once.

Tests used:
Assay type in all cases: cell-based
HaCaT cells = assay: Cytotoxicity assay in human keratinocytes (crystal violet); conditions: for IC50: HaCaT human keratinocytes, standard deviation in parenthesis; for Selectivity Index: IC50 HaCaT/IC50 Trophozoites
Method: The in vitro cytotoxicity evaluation of compounds was assayed in immortalized human keratinocytes cell line (HaCat). Briefly, cell cultures were grown in DMEM-F12 media supplemented with 10% decomplemented fetal bovine serum, at 37°C and 5% CO2. Before to test, cells were harvested by centrifugation at 25°C and resuspended in fresh media at 5x10^4 cells/mL. Then, the cells were placed in sterile 24 well clear flat bottom polystyrene TC-treated plates (Corning Costar, #353047) at 3x10^4 cells/well in a volume of 600 µL during 24 hours/37°C at 5% CO2, […] of media was replaced by the same amount of fresh media containing the compounds at concentrations of 100, 90, 80, 70, 60, and 50 µM; DMSO was used as a negative control. The cells were incubated for 48 hours/37°C and 5% CO2. In the end, the cells were washed two times with PBS, fixed and stained by incubating 15 minutes in a solution containing 50% EtOH, 1.75% formaldehyde, 0.75% crystal violet, and 0.25% NaCl. Then, the plates were washed several times with water until removing the colorant excess. After that, the plates were dried for one day at 25°C. Finally, 600 µL of PBS supplemented with 1% SDS was added to wells. The crystal violet incorporated to cells was spectrophotometrically quantified at 570 nm; the IC50 values were calculated from the percentage of death obtained from the different concentrations of assayed compounds. The assay was performed by two independent experiments, each compound was tested by triplicate.

[1] = test system: Giardia lamblia trophozoites; assay: In vitro cytotoxicity microassay with XTT viability readout on trophozoites; conditions: for % cell death at 12.5 µM (Hits confirmation) / % cell death at 25 µM (Hits confirmation) / % cell death at 50 µM (Hits confirmation) / % cell death at 100 µM (First screening): Table S9; for % cell death at 100 µM (First screening) / % cell death / % cell death 100 µM: 100 µM; for % cell death: first set of 54 compounds (Table S8); for IC50: G. lamblia trophozoites, standard deviation in parenthesis; for % cell death 100 µM: second set of 20 compounds (Table S10)
Method: The cytotoxicity test was performed using sterile 96 well clear flat bottom polystyrene TC-treated microplates (Corning Costar #3596). Every well contained in a triplicate 287.5 µL medium supplemented with a first set of 54 compounds of the collection, control drugs (metronidazole and tinidazole), and negative controls (0.05% DMSO). Afterwards, 12.5 µL of a cell suspension containing 1.6 x 10^7 trophozoites/mL was added to every well to obtain a final number of 2x10^5 cells/well and incubated at 37°C for 24 hours. […] A triplicate of blank was done by filling three wells with only 300 µL culture medium (no cells but DMSO). After that, the plates were chilled for 30 minutes to separate the adhered trophozoites in wells. Later, we transferred 50 µL of this suspension to a second plate containing 250 µL of TYI-S-33 media free of compounds, DMSO or antibiotic per well, and re-cultivated at 37°C for 24 hours. The test was performed by two independent experiments for all compounds.
>The trophozoites viability was evaluated using the 2,3-Bis(2-methoxy-4-nitro-5-sulfophenyl)-sH-tetrazolium-5-carboxianilide inner salt (XTT) assay. Antigiardiasic activity of each compound was expressed as the death percentage, calculated by using the next equation ([Inc, 2020]):
% death=[(Abs. of well with 100% viability−Abs. of well with compound)/(Abs. of well with 100% viability−Abs. of blank well)]X 100
The assay was performed by two independent experiments, where each compound was tested by triplicate.

[2] = test system: Giardia lamblia trophozoites; assay: Morphological studies of trophozoites (bright-field microscopy, transmission electron microscopy); conditions: at the IC50 concentration, 24 hours; for Morphological effects on trophozoites (bright-field microscopy): Giemsa stain
Method: For bright-field microscopy (BFM), 2x10^6 trophozoites were placed in 1.5 mL vials containing antibiotic-free TYI-S-33 culture medium, with or without metronidazole, tinidazole, albendazole, or the library compounds, at the IC50 concentration values. The trophozoites were incubated for 24 hours/37°C and harvested by chilling in ice bath for 15 minutes and centrifuged at 2,000 x g/5 minutes. The bottom cell was washed three times with PBS, and then, placed in glass slides, fixed with MeOH and stained with Giemsa. Finally, the samples were analyzed by BFM. To identify ultrastructural damage, 1x10^6 trophozoites treated as described before were fixed with 2.5% glutaraldehyde and post-fixed with 1% osmium tetroxide in 0.1 M cacodylate buffer, pH 7.2. Afterward, the samples were dehydrated with sequential increasing of ethanol concentrations and then, embedded in epoxy resin. Ultrathin sections of samples were analyzed in a JEOL-JEM-1200 transmission electron microscope coupled to a CCD GATAN camera in the Unidad de Imagenología del Instituto de Fisiología Celular, UNAM.

| SMILES | IC50 (HaCaT cells; Homo sapiens, HaCaT, 48 h) [µM] | Selectivity Index (HaCaT cells) | % cell death at 12.5 µM (Hits confirmation) [1] [%] | % cell death at 25 µM (Hits confirmation) ([1]; 25 µM) | % cell death at 50 µM (Hits confirmation) ([1]; 50 µM) [%] | % cell death at 100 µM (First screening) [1] [%] | % cell death [1] [%] | IC50 ([1]; Giardia duodenalis) [µM] | Morphological effects on trophozoites (bright-field microscopy) [2] | % cell death 100 µM [1] [%] | Ultrastructural effects on trophozoites (transmission electron microscopy) [2] | % cell death 25 µM ([1]; 25 µM, second set (Table S10)) [%] | % cell death 50 µM ([1]; 50 µM, second set (Table S10)) [%] | IC50 (HaCaT cells; 48 hours) [µM] | IC50 [1] [µM] |
| --- | --- | --- | --- | --- | --- | --- | --- | --- | --- | --- | --- | --- | --- | --- | --- |
| COc1ccc(/C=C2/CC3(C(=O)NC(C)(C)C)c4cc(F)ccc4CN3C2=O)cc1OC (stereo not drawn) [EHV-110-160] | 141 | 7 | 2.874 | 67% and 66.901% | 98.178 | 100.0 | 100.0 | 20 | affected the nuclear structure and promoted the loss of one nucleus |  |  |  |  |  |  |
| CCS(=O)(=O)CCn1c([N+](=O)[O-])cnc1C [Tinidazole, reference compound] | 60.9 | 46 | 98.499 |  |  | 100.0 | 100.0 | 1.3 | provoked cell swelling and the voiding of cytoplasmic contents making the cells translucent | 100.7 |  |  |  |  |  |
| Cc1ncc([N+](=O)[O-])n1CCO [Metronidazole, reference compound] | 71.9 | 27.6 | 86.562 |  |  | 100.0 | 100.0 | 2.6 | provoked cell swelling and the voiding of cytoplasmic contents making the cells translucent | 100.1 | without apparent morphologic changes |  |  |  |  |
| COc1ccc(/C=C2/CC3(C(=O)NC(C)(C)C)c4ccccc4CN3C2=O)cc1OC (stereo not drawn) [EHV-110-106] |  |  |  |  |  |  |  |  |  | 89.2 |  | 8.2 | 13.4 |  |  |
| COc1ccc(/C=C2/CC3(C(=O)NC4CCCCC4)c4ccccc4CN3C2=O)cc1OC (stereo not drawn) [EHV-110-154] | 50 | 1.68 | 4.160 | 10.752% | 94.654 | 100.0 | 100.0 | 30 | affected the nuclear structure and promoted the loss of one nucleus |  |  |  |  | 50.6 |  |
| COc1ccc(/C=C2/CC3(C(=O)N[C@@H](C)c4ccccc4)c4ccccc4CN3C2=O)cc1OC (stereo partly drawn) [EHV-110-174, 2-((Z)-3,4-dimethoxybenzylidene)-3-oxo-N-((S)-1-phenylethyl)-2,3-dihydro-1H-pyrrolo[2,1-a]isoindole-9b(5H)-carboxamide] | 130 | 12 |  | 98.298% | 98.312 | 100.0 | 100.0 | 11 | the cells are translucent and swelling, with shortening of flagella but without general morphological deformation |  | damaged the cellular nuclei inducing chromatin condensation and conferring to it a speckled pattern |  |  |  | 10.9 |
| CCCSc1ccc2nc(NC(=O)OC)[nH]c2c1 [Albendazole] |  |  |  |  |  |  |  |  | an intense deformation of its general structure was observed |  | loss of adhesive disc |  |  |  |  |
